Experiments:
[1] = system: Chinese adults with overweight or obesity; test: Treatment-emergent adverse events, phase 1b trial, 9 mg and 10 mg cohorts; details: n = 8
Method: The study included a 3-week screening period, a 12-week or 16-week treatment period and an 8-week safety follow-up period. During the treatment period, mazdutide or placebo was subcutaneously administered once weekly with one of the following dose-escalation regimens: 9 mg cohort (3 mg weeks 1-4; 6 mg weeks 5-8; 9 mg weeks 9-12) and 10 mg cohort (2.5 mg weeks 1-4; 5 mg weeks 5-8; 7.5 mg weeks 9-12; 10 mg weeks 13-16) (Figure S1). The escalation regimen in the 10 mg cohort provided relatively slower titration (2.5 mg every 4 weeks) to the target dose of 10 mg, and the escalation regimen in the 9 mg cohort adopted faster titration (3 mg every 4 week). Participants were required to maintain the original diet, exercise and lifestyle during the trial.
The primary outcomes were safety and tolerability of mazdutide. […] The severity of the TEAEs (mild, moderate or severe) and the association between an event and the study drug was assessed by investigators based on pre-specified criteria.
Safety analyses were done in the safety population (defined as all participants who received at least one dose of the study treatment).

[2] = system: Chinese adults with overweight or obesity; details: low dose cohorts; cited from earlier work
Method: Summary Background Mazdutide (also known as IBI362 or LY3305677), a novel once-weekly glucagon-like peptide-1 (GLP-1) and glucagon receptor dual agonist, achieved 12-week body weight loss up to 6.4% at doses up to 6 mg in Chinese adults with overweight or obesity. We further explored the safety and efficacy of mazdutide dosed up to 9 mg and 10 mg. Methods In this randomised, placebo-controlled, multiple-ascending-dose phase 1b trial, we enrolled adults (aged 18-75 years, both inclusive) with overweight (body-mass index [BMI] ≥24 kg/m^2) accompanied by hyperphagia and/or at least one obesity-re ... || A PubMed search on July 4, 2022, with the terms “glucagon-like peptide-1″, [AND] “glucagon receptor”, [AND] “dual agonist”, in the Title or Abstract yielded 31 results. […] Mazdutide dosed up to 6 mg achieved 12-week mean body weight loss up to 6.4% in Chinese adults with overweight or obesity. || Mazdutide (also known as IBI362 or LY3305677) is a once-weekly mammalian oxyntomodulin analogue. […] In a phase 1b clinical trial in Chinese adults with overweight or obesity, mazdutide dosed up to 6 mg achieved 12-week mean body weight loss up to 6.4%.[11] Given the favourable safety profile and the robust body weight loss achieved in the low-dose cohort ... || (+ 2 further places)

human glucagon receptors = details: in vitro; cited from earlier work
Method: (§1) Mazdutide (also known as IBI362 or LY3305677) is a once-weekly mammalian oxyntomodulin analogue. […] In a phase 1b clinical trial in Chinese adults with overweight or obesity, mazdutide dosed up to 6 mg achieved 12-week mean body weight loss up to 6.4%.[11] Given the favourable safety profile and the robust body weight loss achieved in the low-dose cohort ...

mouse glucagon receptors = details: in vitro; cited from earlier work
Method: as §1

human GLP-1 receptors = details: in vitro; cited from earlier work
Method: as §1

mice = details: cited from earlier work
Method: as §1

mouse GLP-1 receptors = details: in vitro; cited from earlier work
Method: as §1

[3] = system: Chinese adults with overweight or obesity; test: Immunogenicity: anti-drug antibodies and neutralizing antibodies, phase 1b trial; type: in vivo, human; details: for Participants who developed treatment-induced anti-mazdutide antibodies: n = 8
Method: (§2) Secondary outcomes included pharmacokinetics, assessed by maximum observed plasma concentration (Cmax), time at which Cmax was observed (Tmax), terminal elimination half-life (t½), and area under the curve from time zero to 168 h after the first dose (AUC0–168 h) and immunogenicity, assessed by titters of anti-drug antibodies (ADAs) and neutralizing antibodies. Secondary efficacy outcomes included the change from baseline to week 12 (9 mg cohort) or week 16 (10 mg cohort) in body weight, waist circumference, BMI, as well as the change from baseline in HbA1c, lipids, transaminase and serum uric acid levels.

[4] = system: Chinese adults with overweight or obesity; test: Change from baseline in body weight, BMI and waist circumference (MMRM), phase 1b trial; type: in vivo, human; details: for Participants who achieved 10% body weight loss or more / Participants who achieved 15% body weight loss or more: during the study; for Participants who achieved 10% body weight loss or more / Participants who achieved 15% body weight loss or more / CFB in BMI / CFB in body weight / CFB in waist circumference / Percent CFB in body weight: n = 8
Method: as §2
The sample size of 12 participants per cohort was empirically determined to provide preliminary safety, tolerability, pharmacokinetics data while minimizing the number of participants. No formal hypothesis testing was planned. Participants receiving placebo were pooled for analysis on the change from baseline in body weight, waist circumference and BMI.
The analyses for the change from baseline in body weight, waist circumference and BMI were performed using mixed-effect model for repeated measures (MMRM), with least squares mean change or mean percent change from baseline at each follow-up time analysed using a restricted maximum likelihood (REML)‐based repeated measures approach in combination with the Newton Raphson Algorithm. The MMRM included the corresponding baseline value, treatment, visit and treatment-by-visit as fixed effects and patient as a random effect, with an unstructured covariance matrix used. In case of non-converge, matrix like Variance Components and Compound Symmetry will be tested in a subsequent order until model‐convergence is achieved. The Kenward-Roger degree of freedom was used in estimating fixed effects. No missing data imputation was conducted. Point estimate of treatment difference versus placebo at week 12 for the 9 mg cohort and at week 16 for the 10 mg cohort were provided, together with corresponding 95% CI and nominal p value.

[5] = 9 mg cohort (sc QW 3/6/9 mg, 4 wk each)
[6] = 10 mg cohort (sc QW 2.5/5/7.5/10 mg, 4 wk each)
[7] = 9 mg cohort, week 12, LS mean (SE), MMRM
[8] = 9 mg cohort, week 12, estimate (95% CI), MMRM
[9] = 10 mg cohort, week 16, LS mean (SE), MMRM
[10] = 10 mg cohort, week 16, estimate (95% CI), MMRM

CC(C)C[C@H](NC(=O)[C@H](CC(C)C)NC(=O)[C@H](Cc1c[nH]c2ccccc12)NC(=O)[C@H](CCC(=O)O)NC(=O)[C@@H](NC(=O)[C@H](Cc1ccccc1)NC(=O)[C@H](CCC(=O)O)NC(=O)[C@H](CCCCNC(=O)COCCOCCNC(=O)COCCOCCNC(=O)CC[C@H](NC(=O)CCCCCCCCCCCCCCCCCCC(=O)O)C(=O)O)NC(=O)[C@H](C)NC(=O)[C@H](CCCCN)NC(=O)[C@H](CCCCN)NC(=O)[C@H](CCC(=O)O)NC(=O)[C@H](CC(=O)O)NC(=O)[C@H](CC(C)C)NC(=O)[C@H](Cc1ccc(O)cc1)NC(=O)[C@H](CCCCN)NC(=O)[C@H](CO)NC(=O)[C@H](Cc1ccc(O)cc1)NC(=O)[C@H](CC(=O)O)NC(=O)[C@H](CO)NC(=O)[C@@H](NC(=O)[C@H](Cc1ccccc1)NC(=O)[C@@H](NC(=O)CNC(=O)[C@H](CCC(N)=O)NC(=O)C(C)(C)NC(=O)[C@@H](N)Cc1c[nH]cn1)[C@@H](C)O)[C@@H](C)O)C(C)C)C(=O)N[C@@H](CCC(=O)O)C(=O)NCC(=O)NCC(=O)N1CCC[C@H]1C(=O)N[C@@H](CO)C(=O)N[C@@H](CO)C(=O)NCC(N)=O [Mazdutide]
TEAE: Infections and infestations (system organ class) [1, 5]: 6 (75.0) n (%)
TEAE: Upper respiratory tract infection [1, 5]: 3 (37.5) n (%)
TEAE: Urinary tract infection [1, 5]: 4 (50) n (%)
TEAE: Infections and infestations (system organ class) [1, 6]: 5 (62.5) n (%)
TEAE: Upper respiratory tract infection [1, 6]: 4 (50) n (%)
TEAE: Urinary tract infection [1, 6]: 2 (25) n (%)
Incidence of abdominal distension [2]: 12.5%
Incidence of diarrhoea [2]: 37.5%
Incidence of nausea [2]: up to 37.5%
Incidence of vomiting [2]: 12.5%
Binding to human glucagon receptors (human glucagon receptors): potently bound
Binding to mouse glucagon receptors (mouse glucagon receptors): potently bound
Binding to human GLP-1 receptors (human GLP-1 receptors): potently bound
Body weight (mice; both Gcgr knockout (KO) and Glp1r KO settings): decreased body weight
Energy expenditure (mice): increased energy expenditure
Glucose control (mice): improved glucose control
Binding to mouse GLP-1 receptors (mouse GLP-1 receptors): potently bound
Participants who developed treatment-induced anti-mazdutide antibodies ([3]; 9 mg cohort): Two
Participants who developed treatment-induced anti-mazdutide antibodies ([3]; 10 mg cohort): four
Participants who developed neutralizing antibodies ([3]; 10 mg cohort, attenuated cAMP generation in CHO cells over-expressing human recombinant glucagon receptors): One
Participants who achieved 10% body weight loss or more ([4]; 9 mg cohort): 50%
Participants who achieved 15% body weight loss or more ([4]; 9 mg cohort): 25%
CFB in BMI [4, 7]: −3.51 (0.46) kg/m^2
CFB in body weight [4, 7]: −9.23 (1.2) kg
CFB in waist circumference [4, 7]: −5.79 (1.45) cm
Percent CFB in body weight [4, 7]: −11.7 (1.5) %
CFB in BMI, ETD versus pooled placebo [4, 8]: −2.96 (−4.37, −1.54) kg/m^2
CFB in body weight, ETD versus pooled placebo [4, 8]: −7.65 (−11.32, −3.98) kg
CFB in waist circumference, ETD versus pooled placebo [4, 8]: −5.15 (−9.63, −0.67) cm
Percent CFB in body weight, ETD versus pooled placebo [4, 8]: −9.8 (−14.4, −5.3) %
Participants who achieved 10% body weight loss or more ([4]; 10 mg cohort): 50%
Participants who achieved 15% body weight loss or more ([4]; 10 mg cohort): 25%
CFB in BMI [4, 9]: −2.96 (0.56) kg/m^2
CFB in body weight [4, 9]: −7.62 (1.39) kg
CFB in waist circumference [4, 9]: −3.36 (1.59) cm
Percent CFB in body weight [4, 9]: −9.5 (1.7) %
CFB in BMI, ETD versus placebo [4, 10]: −1.89 (−3.63, −0.15) kg/m^2
CFB in body weight, ETD versus placebo [4, 10]: −4.76 (−9.10, −0.43) kg
CFB in waist circumference, ETD versus placebo [4, 10]: −1.18 (−7.65, 5.29) cm
Percent CFB in body weight, ETD versus placebo [4, 10]: −6.2 (−11.5, −0.9) %
